Experimental data: US8410140B2, “Anesthetic methods and compositions” (The Regents of the University of Michigan, priority 2009, dated 2013)

Key:
[1] = tested on: sciatic nerve block in rat; conditions: high-dose dexmedetomidine alone or combined with approved concentrations of bupivacaine; cited from earlier work
[2] = tested on: sciatic nerve block in rat; assay: PWL and inter-paw differential (IPD), perineural versus subcutaneous dexmedetomidine in sciatic nerve block (Example 3); assay type: in vivo
Procedure: The relative systemic versus peripheral perineural effects of dexmedetomidine were determined by observing the PWL for the blocked and unblocked (control) paw. The effect of sensory analgesia (as measured by the PWL) to the operative paw compared with the control paw was calculated and is reported as the inter-paw differential (IPD=100*[Operative PWL−Control PWL]/Control PWL).
Data are presented as mean±SEM.

[3] = tested on: sciatic nerve block in rat; assay: Paw withdrawal latency (PWL) to a heat stimulus after perineural sciatic nerve block, dexmedetomidine dose response (Example 2); assay type: in vivo; conditions: operative paw, ropivacaine 0.5%, heat cut-off 15 seconds, n = 10
Procedure: Commercially available 0.75% ropivacaine solution was mixed with preservative free normal saline or dexmedetomidine to make final solutions. The control group received 0.5% ropivacaine alone. In the experimental groups, ropivacaine was mixed with dexmedetomidine to make solutions based on the individual rat's weight 24 hours prior to experimental testing. […] The pH of ropivacaine (5.69±0.05) was used as the standard to which all solutions were maintained.
Fifty male Sprague Dawley rats (caesarean-derived Sprague-Dawley) weighing 250-350 g were purchased from Charles River Laboratories (Wilmington, Mass.). Rats without any signs of neurobehavioral impairment were maintained for one week in 12:12 light-dark cycles with lights on from 6 a.m. to 6 p.m. For the three days prior to surgery and neurobehavioral monitoring, rats were conditioned to the paw withdrawal chambers for one hour per day. Each rat was placed in the same position of the six-chamber container during the conditioning and neurobehavioral testing. On each of the three days prior to testing, both paws of the rat were exposed to the heat stimulus as a portion of the conditioning process. The day before surgery and testing, five PWL baseline measurements were obtained on both the operative and control paws. The mean value of the five measures was recorded as the rat's baseline value.
The IITC Life Sciences Inc. Plantar Analgesia Meter (Series 8 Model 336T, IITC Life Science Inc., Woodland Hills, Calif.) was used to test paw withdrawal latency (PWL) (Hargreaves et al. (1988) Pain 32:77-88; herein incorporated by reference in its entirety). The analgesia meter used a test unit containing a heat source that radiated a light beam. An angled mirror on the test unit was used to locate the correct target on the paw. The meter was set with an active intensity of 40%, an idle intensity of 10%, and a cut-off time for the heat source of 15 seconds. The time to paw withdrawal from the heat stimulus comprised the PWL measure (reaction time was measured to 0.01 s). An acrylic six-chamber container was used to separate the rats that were placed on the glass (Model 400) heated base. In order to decrease the level of variance in PWL measurements, the temperature of the base was set to 30 degrees Celsius five minutes prior to and throughout each round of PWL testing (Ding et al. (1997) Neurosci. Methods 76:183-191; herein incorporated by reference in its entirety).
An investigator blinded to the drug condition carried out the sciatic nerve injections. Each rat was randomly assigned to one of the five drug conditions. The laboratory assistants responsible for drug preparation were blinded to the surgery, neurobehavioral monitoring, and PWL measures. Rats were anesthetized and maintained with 2.5% isoflurane. […] Following the dissection, the sciatic nerve was clearly identified at a point proximal its bifurcation. All rats received unilateral injections of 0.2 ml of drug into the perineural space below the clear fascia covering the nerve and proximal to the bifurcation of the sciatic nerve. Injections were made using a tuberculin syringe and a 30-gauge needle. The time of the injection was recorded and deemed the zero time point. A non-absorbable muscle fascia suture was placed at the midpoint of the injection site as a marker for subsequent nerve removal.

[4] = drug(s) injected perineurally, saline subcutaneously, ropivacaine 0.5%, DEX 20.0 μg/kg, p<0.05

Row | SMILES | neurotoxicity [1] | sensory blockade of the operative paw ([2]; DEX 20.0 μg/kg alone, perineural) | inter-paw differential (IPD), relative effect ([2]; DEX 20.0 μg/kg alone, perineural, significantly different at 30 and 60 minutes (p=0.006 and 0.002)) | time points with significant differences between the operative and control paws (PWL) ([2]; DEX 20.0 μg/kg injected subcutaneously, perineural 0.5% ropivacaine or saline) | time points with significant differences between the operative and control paws (PWL) [2, 4] [min] | Mean PWL values, 90 min ([3]; 90 min after 0.2 ml perineural sciatic injection) [s] | Mean PWL values, 120 min ([3]; 120 min after 0.2 ml perineural sciatic injection) [s] | Mean PWL values, 150 min ([3]; 150 min after 0.2 ml perineural sciatic injection) [s] | Mean PWL values, 180 min ([3]; 180 min after 0.2 ml perineural sciatic injection) [s] | Mean PWL values, 210 min ([3]; 210 min after 0.2 ml perineural sciatic injection) [s] | PWL scores of the operative paws, 30-90 min time points ([2]; dense blockade, cutoff threshold 15 s, ropivacaine 0.5%, DEX 20.0 μg/kg) [s]
1 | Cc1cccc([C@H](C)c2cnc[nH]2)c1C [dexmedetomidine, Dexmedetomidine] | no neurotoxicity | brief, partial sensory blockade | greater than subcutaneous dexmedetomidine alone | affected both paws equally | 60 |  |  |  |  |  | 
2 | CCCN1CCCC[C@H]1C(=O)Nc1c(C)cccc1C [Ropivacaine, ropivacaine] |  |  |  |  | 30 to 90 | 13.25 | 6.13 | 4.74 | 5.35 | 5.05 | ~15
